Data as given in PMC3871595, “Structure Based Identification and Characterization of Flavonoids That Disrupt Human Papillomavirus-16 E6 Function” (PLoS ONE, 2013).
Read-outs that look alike come from different tables or passages of the source.

Columns and labels:
[1] = biological target: T1, interaction between GST-E6 and three PDZ domains of hDlg fused to BAP (hDlg-BAP) (Human papillomavirus type 16, UniProt P03126); experiment: E6/hDlg-BAP specificity filter binding assay; design: species or system HPV-16
T1 construct: made in house; host or cells: E. coli BL21
Protocol: (§1) This interaction between E6 and hDlg occurs at the C-terminus of E6 and is independent of the interaction between E6 and the charged leucine helix in E6AP [21, 22].
Pre-Block - 96-well filter plates were prepared (0.2 µm BioTrace NT, Pall). 100µL of blocking buffer (100 mM Tris pH 8.0, 100 mM NaCl, 0.1% milk) was added per well. Plates were blocked for 1 hr at RT on an orbital shaker. Buffer was removed by vacuum filtration using a vacuum manifold. GST-E6 Bead addition – GST-E6 beads were prepared at 5µg/mL in GST-E6 bead buffer (100 mM Tris pH 8.0, 100 mM NaCl, 0.1% milk, 2.5 mM DTT). 100µL of GST-E6 bead mix was added per well and incubated for 1 hr at 4°C. Buffer was removed by vacuum filtration. […] 48 µL of each reagent was added per well. For drug assay, 2µL of compound was added to each well and mixed thoroughly. […] Plates were incubated for 1-3 hours at RT on an orbital shaker. Buffer was removed by vacuum filtration. Plates were washed on the vacuum manifold, first with 200 µL buffer (100 mM Tris pH 8.0, 100 mM NaCl, 1 mM DTT), and twice more with 100µL lysis buffer without DTT. […] 60 µL of Immunostar-AP assay reagent was added, the BAP activity was allowed to develop for 10 minutes and the plates were read on a Wallace Luminometer. BAP activity was measured as relative light units (RLU) on a luminometer using the Immunostar-AP substrate (BioRad).

[2] = biological target: T2, interaction between HPV-16 E6 and E6AP (Human papillomavirus type 16, UniProt P03126); experiment: biochemical; format: binding; conditions: for Emax: read-out: Maximal Inhibition
T2 construct: made in house; host or cells: E. coli BL21
Protocol: To characterize potential E6 inhibitors, a robust in vitro assay was developed to measure the interaction between HPV-16 E6 and E6AP. […] The core 70 amino acids of the E6 binding region of E6AP (residues 371-440) was fused to bacterial alkaline phosphatase (BAP) in the MY101 vector [40]. […] Binding efficiency was determined from the intensity of BAP activated chemiluminescence remaining in each well.
Kinetic analysis was performed to characterize the protein-protein interaction inherent in this assay.
The collection of 72 available structural-lead compounds was tested in the filter-plate based in vitro E6-E6AP binding assay. […] Compounds that disrupted the Flag-BAP interaction with the same potency as the HPV-16 E6 and E6AP interaction were classified as non-specific and eliminated from further analysis. […]
Pre-Block - 96-well filter plates were prepared (0.2 µm BioTrace NT, Pall). 100µL of blocking buffer (100 mM Tris pH 8.0, 100 mM NaCl, 0.1% milk) was added per well. Plates were blocked for 1 hr at RT on an orbital shaker. Buffer was removed by vacuum filtration using a vacuum manifold. GST-E6 Bead addition – GST-E6 beads were prepared at 5µg/mL in GST-E6 bead buffer (100 mM Tris pH 8.0, 100 mM NaCl, 0.1% milk, 2.5 mM DTT). 100µL of GST-E6 bead mix was added per well and incubated for 1 hr at 4°C. Buffer was removed by vacuum filtration. […] 48 µL of each reagent was added per well. For drug assay, 2µL of compound was added to each well and mixed thoroughly. […] Plates were incubated for 1-3 hours at RT on an orbital shaker. Buffer was removed by vacuum filtration. Plates were washed on the vacuum manifold, first with 200 µL buffer (100 mM Tris pH 8.0, 100 mM NaCl, 1 mM DTT), and twice more with 100µL lysis buffer without DTT. Plates were cleared and dried with on the vacuum manifold. Assay – Immunostar assay reagent was prepared and equilibrated to RT prior to addition. 60 µL of Immunostar-AP assay reagent was added, the BAP activity was allowed to develop for 10 minutes and the plates were read on a Wallace Luminometer. BAP activity was measured as relative light units (RLU) on a luminometer using the Immunostar-AP substrate (BioRad).

[3] = test system: interaction between anti-FLAG antibody and the FLAG epitope in the E6AP-BAP fusion; experiment: FLAG/BAP specificity filter binding assay
Protocol: The collection of 72 available structural-lead compounds was tested in the filter-plate based in vitro E6-E6AP binding assay. Compounds were tested twice at concentrations of 10, 50, and 100 µM. […] Compounds that disrupted the Flag-BAP interaction with the same potency as the HPV-16 E6 and E6AP interaction were classified as non-specific and eliminated from further analysis.
Figure 3 Activity of flavonoids in the in vitro binding assay. Compounds were tested in vitro for the ability to disrupt the E6-E6AP interaction. […] Percent inhibition was determined by the amount of BAP activity remaining in the well after washing and normalized to DMSO. Data was plotted by linear regression for single site binding using Prism (n=3, S.E.M.).
as §1

RPE-1 cells = experiment: cell viability (MTS, Celltiter 96 AQueous) RPE-1; format: cell-based, human; conditions: RPE-1 (HPV negative), 48 to 96 hours, relative to DMSO
[4] = test system: Caski, HeLa, RPE-1, C33a and HaCat cells; experiment: cell number and morphology (bright field microscopy); format: cell-based, human; conditions: 72 hours
[5] = test system: RPE-1, HeLa, C33a and HaCat cells; experiment: SA-beta-gal senescence assay in other cell lines; format: cell-based, human; conditions: 72 hours
Protocol: This was specific to Caski cells and was not observed in RPE-1, HeLa cells, or the HPV negative control cell lines C33a and HaCat (Figures S2A,B ). […] As observed in the viability assay, this occurred in both the HPV positive and negative cell lines. […] These cell lines were also assayed for apoptosis.
12,000 cells per cm^2 were plated in 24-well dishes; after 24 hours, fresh media and compound were added. SA-beta gal staining was performed as described. Images were collected using bright field microscopy. At least four fields (~100 cells per field) were read for each treatment, and experiments were repeated 3 times. The percent SA-beta-gal positive cells was calculated for each data point.

HaCat cells = experiment: cell viability (MTS, Celltiter 96 AQueous) HaCat; format: cell-based, human; conditions: HaCat (HPV negative), 48 to 96 hours, relative to DMSO
Protocol: (§2) HPV-18 positive HeLa cells and two additional control cell lines, C33a, a cell line derived from an HPV-negative human cervical cancer isolate, and HaCat, a spontaneously immortalized human keratinocyte cell line, were used to assess compounds for their impact on cell growth and viability. All cells were incubated for 48 to 96 hours with increasing doses of compound. Cell viability was measured by MTS based assay and % viability quantified relative to cells treated with DMSO.
(§3) For cell viability, 12,000 cells per cm^2 were plated in 96-well dishes 24 hours prior to drug addition. Fresh media and compound were added. Plates were read after 72-96 hours. Relative cell viability was assayed as directed in the Celltiter 96 AQueous one solution assay (Promega). For caspase activity, plates were assayed after 4, 8, 12, 24, or 48 hours as described for the Caspase-Glo 3/7 assay (Promega).

C33a cells = experiment: cell viability (MTS, Celltiter 96 AQueous) C33a; format: cell-based, human; conditions: C33a (HPV negative), 48 to 96 hours, relative to DMSO
Protocol: as §2, §3

primary HFKs = experiment: cell viability (MTS, Celltiter 96 AQueous) primary HFKs; format: cell-based, human; conditions: 48 hours, relative to DMSO
[6] = biological target: E6 fused to a GB1-fusion tag (GBF) (Human papillomavirus type 16, UniProt P03126); experiment: surface plasmon resonance direct binding, immobilized GBF-E6; design: species or system HPV-16; conditions: 1.6-12.5 µM
Protocol: A reference cell with immobilized GBF was performed simultaneously for background subtraction. […] While direct binding was observed, the data could not be properly fit to determine binding affinity.
SPR analysis was performed on a Biacore 3000 instrument. Immobilized GBFE6 [43] was diluted to 30μg/mL in 10 mM sodium acetate, pH 4.0 and 5.0 and immobilized onto the dextran matrix of a CM5 sensor chip (Biacore) using the amine coupling method. All binding experiments were performed at 25 °C in 50 mM phosphate (pH 6.5) containing 200 mM NaCl. Pulses of 10 mM glycine (pH 3.0) were used to regenerate the surfaces between injections. […] SPR data were analyzed using BIAevaluation 4.1 software (Biacore).

[7] = full 7-point dose response, 0.5 µM to 333 µM, quadruplicate

T2 sequence (P03126 whole entry): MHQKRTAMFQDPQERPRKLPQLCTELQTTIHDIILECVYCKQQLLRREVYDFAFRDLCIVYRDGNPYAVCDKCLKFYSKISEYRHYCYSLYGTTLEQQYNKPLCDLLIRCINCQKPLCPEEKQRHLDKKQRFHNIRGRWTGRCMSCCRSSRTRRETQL
T1 sequence (P03126 whole entry, the tested form may be a part): as the sequence (P03126 whole entry) above
Sequence of E6 fused to a GB1-fusion tag (GBF) (P03126 whole entry, the tested form may be a part): as the sequence (P03126 whole entry) above

| Compound | specificity against hDlg control binding reaction [1] | IC50 [2] [µM] | IC50 [2, 7] | Emax [2] [%] | non-specific inhibition / specificity in FLAG-E6AP control assay [3] | cell growth and viability (RPE-1 cells) | number of cells per well [4] | cell morphology ([4]; luteolin @ 50µM) | SA-β-gal staining [5] | cell growth and viability (HaCat cells) | cell growth and viability (C33a cells) | cell growth and viability (primary HFKs) | direct binding to E6 (SPR response) [6] | inhibition of the interaction between E6 and E6AP ([2]; full 7-point binding assay, maximum) |
| --- | --- | --- | --- | --- | --- | --- | --- | --- | --- | --- | --- | --- | --- | --- |
| COc1cccc(-c2cc(=O)c3cc(-c4nnn[nH]4)ccc3o2)c1 [CAF-24] | increased specificity against the FLAG and hDlg control binding reactions | 2.8 | low micromolar IC50 values | 95 | increased specificity against the FLAG and hDlg control binding reactions | little effect on the viability | decreased Caski and HeLa cell numbers | no change in cell morphology | not observed | little effect on the viability | little effect on the viability | to a lesser extent, inhibit growth of the primary HFKs | – | – |
| O=c1cc(-c2ccc(O)c(O)c2)oc2cc(O)cc(O)c12 [luteolin, reference compound] | – | 4.3 | low micromolar IC50 values | 99 | – | – | dramatic decrease in the number of cells per well | – | no significant increase in β-gal staining | – | – | – | directly binds to E6 protein | up to 100% |
